Results as given in ChEMBL document CHEMBL3045916, “Synthesis, characterization, biological evaluation and in silico screening of oxadiazinanones” (Med Chem Res, 2013).
In brackets after ≈: the same amount, converted by molar mass.

Legend:
Talaromyces marneffei [1] = assay: Antifungal activity against Talaromyces marneffei assessed as growth inhibition after 48 hr by agar disk diffusion method; format: functional
[2] = tested on: Radical scavenging activity; assay: Antioxidant activity assessed as DPPH radical scavenging activity after 30 min by spectrophotometric analysis; format: functional
[3] = tested on: Trichophyton mentagrophytes; assay: Fungicidal activity against Trichophyton mentagrophytes after 48 hr; format: functional
Candida albicans [4] = assay: Antifungal activity against Candida albicans ATCC 90028 assessed as growth inhibition after 48 hr by agar disk diffusion method; format: functional
Streptococcus pyogenes [5] = assay: Bactericidal activity against Streptococcus pyogenes clinical isolate after 18 to 24 hr; format: functional
Staphylococcus aureus [6] = assay: Antibacterial activity against methicillin-resistant Staphylococcus aureus assessed as growth inhibition after 24 hr by macro-dilution method; format: functional
Talaromyces marneffei [7] = assay: Antifungal activity against Talaromyces marneffei assessed as growth inhibition after 48 hr by macro-dilution method; format: functional
Aspergillus fumigatus [8] = assay: Fungicidal activity against Aspergillus fumigatus after 48 hr; format: functional
[9] = tested on: Radical scavenging activity; assay: Antioxidant activity assessed as DPPH radical scavenging activity at 6 ug/mL after 30 min by spectrophotometric analysis relative to control; format: functional
Escherichia coli [10] = assay: Antibacterial activity against Escherichia coli ATCC 25922 assessed as growth inhibition after 24 hr by disk diffusion method; format: functional
Pseudomonas aeruginosa [11] = assay: Bactericidal activity against Pseudomonas aeruginosa ATCC 9029 after 18 to 24 hr; format: functional
Staphylococcus aureus [12] = assay: Antibacterial activity against methicillin-resistant Staphylococcus aureus assessed as growth inhibition after 24 hr by disk diffusion method; format: functional
Candida albicans [13] = assay: Antifungal activity against Candida albicans ATCC 90028 assessed as growth inhibition after 48 hr by macro-dilution method; format: functional; conditions: ATCC 90028, 48 h
Klebsiella pneumoniae [14] = assay: Antibacterial activity against Klebsiella pneumoniae clinical isolate assessed as growth inhibition after 24 hr by disk diffusion method; format: functional
Staphylococcus aureus [15] = assay: Bactericidal activity against methicillin-resistant Staphylococcus aureus after 18 to 24 hr; format: functional
Escherichia coli [16] = assay: Antibacterial activity against Escherichia coli ATCC 8739 assessed as growth inhibition after 24 hr by macro-dilution method; conditions: ATCC 8739, 24 h
Escherichia coli [17] = assay: Bactericidal activity against Escherichia coli ATCC 25922 after 18 to 24 hr; format: functional
Pseudomonas aeruginosa [18] = assay: Antibacterial activity against Pseudomonas aeruginosa ATCC 9029 assessed as growth inhibition after 24 hr by macro-dilution method; format: functional; conditions: ATCC 9029, 24 h
Klebsiella pneumoniae [19] = assay: Bactericidal activity against Klebsiella pneumoniae clinical isolate after 18 to 24 hr; format: functional
Streptococcus pyogenes [20] = assay: Antibacterial activity against Streptococcus pyogenes clinical isolate assessed as growth inhibition after 24 hr by disk diffusion method; format: functional
[21] = tested on: Radical scavenging activity; assay: Antioxidant activity assessed as DPPH radical scavenging activity at 8 ug/mL after 30 min by spectrophotometric analysis relative to control; format: functional
Aspergillus fumigatus [22] = assay: Antifungal activity against Aspergillus fumigatus assessed as growth inhibition after 48 hr by agar disk diffusion method; format: functional
[23] = tested on: Trichophyton mentagrophytes; assay: Antifungal activity against Trichophyton mentagrophytes assessed as growth inhibition after 48 hr by macro-dilution method; format: functional
Klebsiella pneumoniae [24] = assay: Antibacterial activity against Klebsiella pneumoniae clinical isolate assessed as growth inhibition after 24 hr by macro-dilution method; format: functional
Talaromyces marneffei [25] = assay: Fungicidal activity against Talaromyces marneffei after 48 hr; format: functional
[26] = tested on: Trichophyton mentagrophytes; assay: Antifungal activity against Trichophyton mentagrophytes assessed as growth inhibition after 48 hr by agar disk diffusion method; format: functional
[27] = tested on: Radical scavenging activity; assay: Antioxidant activity assessed as DPPH radical scavenging activity at 2 ug/mL after 30 min by spectrophotometric analysis relative to control; format: functional
[28] = tested on: Radical scavenging activity; assay: Antioxidant activity assessed as DPPH radical scavenging activity at 10 ug/mL after 30 min by spectrophotometric analysis relative to control; format: functional
Aspergillus fumigatus [29] = assay: Antifungal activity against Aspergillus fumigatus assessed as growth inhibition after 48 hr by macro-dilution method; format: functional
[30] = tested on: Radical scavenging activity; assay: Antioxidant activity assessed as DPPH radical scavenging activity at 4 ug/mL after 30 min by spectrophotometric analysis relative to control; format: functional
Pseudomonas aeruginosa [31] = assay: Antibacterial activity against Pseudomonas aeruginosa ATCC 9029 assessed as growth inhibition after 24 hr by disk diffusion method; format: functional
Streptococcus pyogenes [32] = assay: Antibacterial activity against Streptococcus pyogenes clinical isolate assessed as growth inhibition after 24 hr by macro-dilution method; format: functional
Candida albicans [33] = assay: Fungicidal activity against Candida albicans ATCC 90028 after 48 hr; format: functional; conditions: ATCC 90028, 48 h

SMILES | diameter of the inhibition zone (DIZ) (Talaromyces marneffei [1]) | IC50 [2] | MFC [3] | diameter of the inhibition zone (DIZ) (Candida albicans [4]) | MBC (Streptococcus pyogenes [5]) | MIC (Staphylococcus aureus [6]) | MIC (Talaromyces marneffei [7]) | MFC (Aspergillus fumigatus [8]) | Activity [9] | diameter of the inhibition zone (DIZ) (Escherichia coli [10]) | MBC (Pseudomonas aeruginosa [11]) | diameter of the inhibition zone (DIZ) (Staphylococcus aureus [12]) | MIC (Candida albicans [13]) | diameter of the inhibition zone (DIZ) (Klebsiella pneumoniae [14]) | MBC (Staphylococcus aureus [15]) | MIC (Escherichia coli [16]) | MBC (Escherichia coli [17]) | MIC (Pseudomonas aeruginosa [18]) | MBC (Klebsiella pneumoniae [19]) | diameter of the inhibition zone (DIZ) (Streptococcus pyogenes [20]) | also measured
CC1(c2cc(O)ccc2O)NNC(=O)CO1 (configuration not stated) | 11.7 mm | 12.95 µg/mL (≈ 57.8 µM) | 100 µg/mL (≈ 446 µM) | 21.4 mm | 100 µg/mL (≈ 446 µM) | 50 µg/mL (≈ 223 µM) | 50 µg/mL (≈ 223 µM) | 100 µg/mL (≈ 446 µM) | 25.2% | 17.2 mm | 100 µg/mL (≈ 446 µM) | 17.6 mm | 50 µg/mL (≈ 223 µM) | 14.8 mm | 100 µg/mL (≈ 446 µM) | 50 µg/mL (≈ 223 µM) | 100 µg/mL (≈ 446 µM) | 50 µg/mL (≈ 223 µM) | 100 µg/mL (≈ 446 µM) | 18.6 mm | Activity [21]: 30.3%; diameter of the inhibition zone (DIZ) (Aspergillus fumigatus [22]): 16.8 mm; MIC [23]: 50 µg/mL (≈ 223 µM); MIC (Klebsiella pneumoniae [24]): 50 µg/mL (≈ 223 µM); MFC (Talaromyces marneffei [25]): 100 µg/mL (≈ 446 µM); diameter of the inhibition zone (DIZ) [26]: 14.8 mm; Activity [27]: 6.61%; Activity [28]: 32.3%; MIC (Aspergillus fumigatus [29]): 50 µg/mL (≈ 223 µM); Activity [30]: 18.7%; diameter of the inhibition zone (DIZ) (Pseudomonas aeruginosa [31]): 24.1 mm; MIC (Streptococcus pyogenes [32]): 50 µg/mL (≈ 223 µM); MFC (Candida albicans [33]): 100 µg/mL (≈ 446 µM)
CC1(c2ccccc2)NNC(=O)CO1 (configuration not stated) | 14.1 mm | 8.25 µg/mL (≈ 42.9 µM) | 50 µg/mL (≈ 260 µM) | 21.4 mm | 50 µg/mL (≈ 260 µM) | 25 µg/mL (≈ 130 µM) | 25 µg/mL (≈ 130 µM) | 50 µg/mL (≈ 260 µM) | 34.8% | 17.4 mm | 100 µg/mL (≈ 520 µM) | 18.2 mm | 25 µg/mL (≈ 130 µM) | 14.1 mm | 50 µg/mL (≈ 260 µM) | 25 µg/mL (≈ 130 µM) | 50 µg/mL (≈ 260 µM) | 25 µg/mL (≈ 130 µM) | 100 µg/mL (≈ 520 µM) | 19.1 mm | Activity [21]: 46.8%; diameter of the inhibition zone (DIZ) (Aspergillus fumigatus [22]): 17.2 mm; MIC [23]: 25 µg/mL (≈ 130 µM); MIC (Klebsiella pneumoniae [24]): 25 µg/mL (≈ 130 µM); MFC (Talaromyces marneffei [25]): 100 µg/mL (≈ 520 µM); diameter of the inhibition zone (DIZ) [26]: 14.5 mm; Activity [27]: 9.86%; Activity [28]: 59.5%; MIC (Aspergillus fumigatus [29]): 25 µg/mL (≈ 130 µM); Activity [30]: 23.8%; diameter of the inhibition zone (DIZ) (Pseudomonas aeruginosa [31]): 24.2 mm; MIC (Streptococcus pyogenes [32]): 25 µg/mL (≈ 130 µM); MFC (Candida albicans [33]): 25 µg/mL (≈ 130 µM)
CC1(c2ccc(O)cc2O)NNC(=O)CO1 (configuration not stated) | 11.1 mm | 6.28 µg/mL (≈ 28 µM) | 100 µg/mL (≈ 446 µM) | 20.2 mm | 100 µg/mL (≈ 446 µM) | 50 µg/mL (≈ 223 µM) | 50 µg/mL (≈ 223 µM) | 100 µg/mL (≈ 446 µM) | 49% | 17.2 mm | > 100 µg/mL | 17.1 mm | 50 µg/mL (≈ 223 µM) | 14.1 mm | 100 µg/mL (≈ 446 µM) | 50 µg/mL (≈ 223 µM) | 100 µg/mL (≈ 446 µM) | 50 µg/mL (≈ 223 µM) | 100 µg/mL (≈ 446 µM) | 18.1 mm | Activity [21]: 64%; diameter of the inhibition zone (DIZ) (Aspergillus fumigatus [22]): 16.2 mm; MIC [23]: 50 µg/mL (≈ 223 µM); MIC (Klebsiella pneumoniae [24]): 50 µg/mL (≈ 223 µM); MFC (Talaromyces marneffei [25]): > 100 µg/mL; diameter of the inhibition zone (DIZ) [26]: 14.1 mm; Activity [27]: 15.7%; Activity [28]: 81.1%; MIC (Aspergillus fumigatus [29]): 50 µg/mL (≈ 223 µM); Activity [30]: 30.2%; diameter of the inhibition zone (DIZ) (Pseudomonas aeruginosa [31]): 24.4 mm; MIC (Streptococcus pyogenes [32]): 50 µg/mL (≈ 223 µM); MFC (Candida albicans [33]): 100 µg/mL (≈ 446 µM)
CC1(c2cccc(O)c2)NNC(=O)CO1 (configuration not stated) | 14.5 mm | 5.99 µg/mL (≈ 28.8 µM) | 25 µg/mL (≈ 120 µM) | 25.5 mm | 25 µg/mL (≈ 120 µM) | 12.5 µg/mL (≈ 60 µM) | 12.5 µg/mL (≈ 60 µM) | 50 µg/mL (≈ 240 µM) | 50.2% | 25.4 mm | 25 µg/mL (≈ 120 µM) | 19.1 mm | 12.5 µg/mL (≈ 60 µM) | 15.1 mm | 25 µg/mL (≈ 120 µM) | 12.5 µg/mL (≈ 60 µM) | 50 µg/mL (≈ 240 µM) | 12.5 µg/mL (≈ 60 µM) | 25 µg/mL (≈ 120 µM) | 19.4 mm | Activity [21]: 66.3%; diameter of the inhibition zone (DIZ) (Aspergillus fumigatus [22]): 22.4 mm; MIC [23]: 12.5 µg/mL (≈ 60 µM); MIC (Klebsiella pneumoniae [24]): 12.5 µg/mL (≈ 60 µM); MFC (Talaromyces marneffei [25]): 50 µg/mL (≈ 240 µM); diameter of the inhibition zone (DIZ) [26]: 17.2 mm; Activity [27]: 16.7%; Activity [28]: 82.8%; MIC (Aspergillus fumigatus [29]): 12.5 µg/mL (≈ 60 µM); Activity [30]: 31.8%; diameter of the inhibition zone (DIZ) (Pseudomonas aeruginosa [31]): 26.2 mm; MIC (Streptococcus pyogenes [32]): 12.5 µg/mL (≈ 60 µM); MFC (Candida albicans [33]): 25 µg/mL (≈ 120 µM)
